From US12522587B2, “Cancer treatments targeting cancer stem cells” (Remedy Plan, Inc., priority 2018, dated 2026)
Where a name gives a salt, the structure may show the parent alone. Read-outs that look alike come from different tables or passages of the source.

Legend:
[1] = tested on: AGS cells; test: Cell viability in AGS cells (CellTiter Glo2, 8-point dose response, 4 days); format: cell-based, human
Experimental: AGS cells were treated with DMSO (no drug control) or each compound in Table 5 in an 8-point dose response for 4 days. Cell viability was measured using CellTiter Glo2. The IC50 of each compound was determined using CDD Vault.

[2] = tested on: MV-4-11 cells; test: Cell viability in MV-4-11 cells (CellTiter Glo2, 4 days); format: cell-based; conditions: Homo sapiens, MV4-11, 96 h
Experimental: Approximately 10,000 MV-4-11 cells per well of a 96-well plate were treated with DMSO (no drug control) or each compound in Table 6 in an 8-point dose response for 4 days. Cell viability was measured using CellTiter Glo2. The IC50 of each compound was determined using CDD Vault.

[3] = tested on: RS4;11 cells; test: Cell viability in RS4;11 cells (CellTiter Glo2, 4 days); format: cell-based; conditions: Homo sapiens, 96 h
Experimental: Approximately 10,000 RS4;11 cells per well of a 96-well plate were treated with DMSO (no drug control) or each compound in Table 6 in an 8-point dose response for 4 days. Cell viability was measured using CellTiter Glo2. The IC50 of each compound was determined using CDD Vault.

| IC50 ([1]; Homo sapiens, AGS, 96 h) [µM] | SMILES | other results |
| --- | --- | --- |
| 3.81 | CCC(=O)N(C)Cc1ccc(-c2ccc(C(=O)NCc3cccnc3)cc2)cc1 [Compound I-228, 4′-((N-methylpropionamido)methyl)-N-(pyridin-3-ylmethyl)-[1,1′-biphenyl]-4-carboxamide] | IC50 [2]: 0.765 µM; IC50 [3]: 1.93 µM |
| > 30 | CCC(=O)N1CCc2cc(-c3ccc(C(=O)NCc4cncnc4)cc3)ccc21 [Compound I-51, 4-(1-propionylindolin-5-yl)-N-(pyrimidin-5-ylmethyl)benzamide] |  |
| > 30 | CCC(=O)N1CCc2cc(-c3ccc(C(=O)NCc4cnccc4C)cc3)ccc21 [Compound I-188, N-((4-methylpyridin-3-yl)methyl)-4-(1-propionylindolin-5-yl)benzamide] |  |
| > 30 | CCC(=O)N1CCc2cc(-c3ccc(C(=O)NCC4CCCO4)cc3)ccc21 (stereo not shown) [Compound I-178] |  |
| 7.86 | CCC(=O)N1CCc2cc(-c3ccc(C(=O)NCc4cccnc4)cc3OC)ccc21 [Compound I-94, 3-methoxy-4-(1-propionylindolin-5-yl)-N-(pyridin-3-ylmethyl)benzamide] | IC50 [1]: 8.71 µM |
| > 13.3 | CCC(=O)n1ccc2cc(-c3ccc(C(=O)NCc4cccnc4)cc3)ccc21 [Compound I-90, 4-(1-propionyl-1H-indol-5-yl)-N-(pyridin-3-ylmethyl)benzamide] |  |
|  | CCC(=O)N1CCc2cc(-c3ccc(C(=O)NCC4=CC[NH2+]CC4)cc3)ccc21 [Mono- formate of I-69, Monoformate 4-(1-propionylindolin-5-yl)-N-((1,2,3,6-tetrahydropyridin-4-yl)methyl)benzamide] | IC50 ([1]; Homo sapiens, 96 h): > 30 µM |
| > 30 | CCC(=O)N1CCc2cc(-c3ccc(C(=O)NCC4CN(C(=O)OC(C)(C)C)C4)cc3)ccc21 [Compound I-196] |  |
| 5.22 | CCC(=O)N(C)c1ccc(-c2ccc(C(=O)NCc3cccnc3)nc2)cc1C [Compound I-227, 5-(3-methyl-4-(N-methylpropionamido)phenyl)-N-(pyridin-3-ylmethyl)picolinamide] |  |
| 1.06 | CCC(=O)N1CCc2cc(-c3ccc(C(=O)NCc4cncc(C)c4)cc3)ccc21 [Compound I-198, N-((5-methylpyridin-3-yl)methyl)-4-(1-propionylindolin-5-yl)benzamide] |  |
| 3.22 | O=C(NCc1cccnc1)c1ccc(-c2ccc3c(c2)CCN3C(=O)CO)cc1 [Compound I-47, 4-(1-(2-hydroxyacetyl)indolin-5-yl)-N-(pyridin-3-ylmethyl)benzamide] |  |
| > 30 | CCC(=O)N1CCc2cc(-c3ccc(C(=O)NCC4CCCNC4)cc3)ccc21 (stereo not shown) [Compound I-63, N-(piperidin-3-ylmethyl)-4-(1-propionylindolin-5-yl)benzamide] |  |
| > 30 | CCC(=O)N1CCc2cc(-c3ccc(C(=O)NCc4ccc(C)nc4)cc3)ccc21 [Compound I-59, N-((6-methylpyridin-3-yl)methyl)-4-(1-propionylindolin-5-yl) benzamide] |  |
| > 30 | CCC(=O)N1CCc2cc(-c3ccc(C(=O)NCc4ccncn4)cc3)ccc21 [Compound I-204, 4-(1-propionylindolin-5-yl)-N-(pyrimidin-4-ylmethyl)benzamide] |  |
| 25.2 | CCC(=O)N1CCc2cc(-c3ccc(C(=O)NCc4cccnn4)cc3)ccc21 [Compound I-197, 4-(1-propionylindolin-5-yl)-N-(pyridazin-3-ylmethyl)benzamide] |  |
| 3.48 | CCC(=O)N1CCc2c1ccc(-c1ccc(C(=O)NCc3cccnc3)cc1)c2F [Compound I-213] |  |
| 0.344 | CCC(=O)N1CCc2cc(-c3ccc(C(=O)NCc4ccc(C)nc4C)cc3)ccc21 [Compound I-60, N-((2,6-dimethylpyridin-3-yl)methyl)-4-(1-propionylindolin-5-yl)benzamide] | IC50 [1]: 0.384 µM |
| > 30 | CCC(=O)N1CCc2cc(-c3ccc(C(=O)NCc4cccc(F)c4)cc3)ccc21 [Compound I-174] |  |
| 1.87 | CC(C)C(=O)N(C)c1ccc(-c2ccc(C(=O)NCc3cccnc3)cc2)cc1 [Compound I-250] |  |
| 2.44 | CC(=O)N(C)c1ccc(-c2ccc(C(=O)NCc3cccnc3)cc2)cc1C [Compound I-216] |  |
| 2.89 | CCC(=O)N1CCc2cc(-c3ccc(C(=O)NCc4cccnc4)nc3)ccc21 [Compound I-55, 5-(1-propionylindolin-5-yl)-N-(pyridin-3-ylmethyl)picolinamide] | IC50 [1]: 3.66 µM |
| > 30 | CCC(=O)N1CCc2cc(-c3ccc(C(=O)NCc4ccc(OC)cc4)cc3)ccc21 [Compound I-156] |  |
|  | CCC(=O)N1CCc2cc(-c3ccc(C(=O)NCc4cccnc4)c(F)c3)ccc21 [Compound I-98, 2-fluoro-4-(1-propionylindolin-5-yl)-N-(pyridin-3-ylmethyl) benzamide] | IC50 [2]: 0.845 µM; IC50 [3]: > 30 µM |
| > 30 | CCC(=O)N1CCc2cc(-c3ncc(C(=O)NCc4cccnc4)cn3)ccc21 [Compound I-66, 2-(1-propionylindolin-5-yl)-N-(pyridin-3-ylmethyl) pyrimidine-5-carboxamide] |  |
| > 30 | CCC(=O)N1CCc2cc(-c3nc(C(=O)NCc4cccnc4)c[nH]3)ccc21 [Compound I-208, 2-(1-propionylindolin-5-yl)-N-(pyridin-3-ylmethyl)-1H-imidazole-4-carboxamide] | IC50 [1]: 15.1 µM |
| 5.11 | CN(C(=O)c1ccccc1)c1ccc(-c2ccc(C(=O)NCc3cccnc3)cc2)cc1 [Compound I-240] |  |

| IC50 ([1]; Homo sapiens, AGS, 96 h) [µM] | SMILES | other results |
| --- | --- | --- |
| 7.68 | CCC(=O)n1ncc2cc(-c3ccc(C(=O)NCc4cccnc4)cc3)ccc21 [Compound I-56, 4-(1-propionyl-1H-indazol-5-yl)-N-(pyridin-3-ylmethyl)benzamide] |  |
| 12.1 | CCC(=O)N(C)c1ccc(-c2ccc(C(=O)NCc3cccnc3)cn2)c(C)c1 [Compound I-246, 6-(2-methyl-4-(N-methylpropionamido)phenyl)-N-(pyridin-3-ylmethyl)nicotinamide] |  |
| > 30 | CCC(=O)N1CCc2cc(-c3ccc(C(=O)NCc4cccc(OC)c4)cc3)ccc21 [Compound I-171] |  |
| 4.35 | CCC(=O)N1CCc2nc(-c3ccc(C(=O)NCc4cccnc4)cc3)ccc21 [Compound I-71, 4-(1-propionyl-2,3-dihydro-1H-pyrrolo[3,2-b]pyridin-5-yl)-N-(pyridin-3-ylmethyl)benzamide] |  |
| > 30 | CCC(=O)N1CCc2cc(-c3ccc(C(=O)NCC4CNC4)cc3)ccc21 [Compound I-200, N-(azetidin-3-ylmethyl)-4-(1-propionylindolin-5-yl)benzamide] |  |
| > 30 | CCC(=O)N1CCc2cc(-c3ccc(C(=O)NC(C)(C)c4cccnc4)cc3)ccc21 [Compound I-58, 4-(1-propionylindolin-5-yl)-N-(2-(pyridin-3-yl)propan-2-yl)benzamide] |  |
| > 30 | CCC(=O)N1CCc2cc(-c3ccc(C(=O)NCc4ccco4)cc3)ccc21 [Compound I-181] |  |
| 1.35 | CCC(=O)N1CCc2cc(-c3ccc(C(=O)NCc4cccnc4)cc3)c(Cl)cc21 [Compound I-212] |  |
| 6.61 | CCC(=O)N1CCc2cc(-c3ccc(C(=O)Nc4cccnc4)cc3)ccc21 [Compound I-74] |  |
| > 30 | CCC(=O)N1CCc2cc(-c3ccc(C(=O)NCc4ccc(F)cc4)cc3)ccc21 [Compound I-179] |  |
| > 30 | CCC(=O)N1CCc2cc(-c3ccc(NC(=O)Cc4cccnc4)cc3)ccc21 [Compound I-95] |  |
| 9.45 | CCC(=O)N1CCc2cc(-c3ccc(S(=O)(=O)NCc4cccnc4)cc3)ccc21 [Compound I-48, 4-(1-propionylindolin-5-yl)-N-(pyridin-3-ylmethyl)benzenesulfonamide] |  |
| 1.54 | CCC(=O)N1CCc2cc(-c3ccc(C(=O)NCc4cccnc4)cc3)c(C)cc21 (single isomer, unassigned) [Compound I-203, 4-(6-methyl-1-propionylindolin-5-yl)-N-(pyridin-3-ylmethyl)benzamide] |  |
| 5.16 | CN(C(=O)c1cocn1)c1ccc(-c2ccc(C(=O)NCc3cccnc3)cc2)cc1 [Compound I-245] |  |
| 2.94 | O=C(NCc1cccnc1)c1ccc(-c2ccc3c(c2)CCN3C(=O)C2CC2)cc1 [Compound I-220] |  |
| > 30 | CCOc1ccc(CNC(=O)c2ccc(-c3ccc4c(c3)CCN4C(=O)CC)cc2)cc1 [Compound I-180] |  |
|  | CCC(=O)N1CCc2cc(-c3ccc(C(=O)N(C)Cc4cccnc4)cc3)ccc21 [Compound I-62, N-methyl-4-(1-propionylindolin-5-yl)-N-(pyridin-3-ylmethyl)benzamide] | IC50 ([1]; Homo sapiens, 96 h): 29.3 µM |
| 1.16 | CCC(=O)N1CCc2cc(-c3ccc(C(=O)NCc4cccnc4)cc3)c(F)cc21 [Compound I-211] |  |
| 6.69 | CCC(=O)N(C)c1ccc(-c2ccc(C(=O)NCc3cncc(C)c3)cc2)cc1 [Compound I-237] |  |
| 3.83 | CC(=O)N1CCc2cc(-c3ccc(C(=O)NCc4cccnc4)cc3)ccc21 [Compound I-42, 4-(1-acetylindolin-5-yl)-N-(pyridin-3-ylmethyl) benzamide] |  |
| > 30 | CCC(=O)N(C)c1ccc(-c2ccc(C(=O)NCc3ccccc3)cc2)cc1 [Compound I-239] |  |
| > 30 | CCC(=O)N1CCc2cc(-c3ccc(C(=O)NCC4CCCCC4)cc3)ccc21 [Compound I-186, N-(cyclohexylmethyl)-4-(1-propionylindolin-5-yl)benzamide] |  |
| 25.8 | CCC(=O)N1CCc2cc(-c3ccc(C(=O)NCc4ccc(Cl)cc4)cc3)ccc21 [Compound I-176] |  |
| 4.54 | CCC(=O)N1CCc2cc(N3CCN(C(=O)NCc4cccnc4)CC3)ccc21 [Compound I-223] |  |
| 3.02 | CCC(=O)N1CCc2cc(-c3ccc(C(=O)NCc4cccnc4)c(O)c3)ccc21 [Compound I-210] |  |
